{"source": "patent US20050272784A1", "about": "(priority 2004, published 2005)", "note": "pIC50: −log10 of the molar value.", "data": [{"test_system": "type III protein secretion system of P. aeruginosa PA103 (ExoU secretion)", "assay": "Tertiary assay: Type III-dependent secretion of ExoU by P. aeruginosa PA103", "type": "cell-based", "conditions": "Pseudomonas aeruginosa, ExoU Conc 100 μM, read-out: ExoU % Inh", "text": "(§1) Tertiary assay: inhibition of Type III protein secretion of effectors from a Pseudomonas aeruginosa system. Type III protein secretion is used by P. aeruginosa to secrete several essential virulence determinants. One effector of the type III protein secretion system of P. aeruginosa PA103 is the virulence determinants ExoU.\n(§2) The amount of Type III-dependent secretion of ExoU by P. aeruginosa PA103 can be determined in a cell-based assay by quantification of the 73.9 kDa ExoU protein scereted into the extracellular medium. Such quantitation can be achieved by growing strain PA103 in a deferrated medium in the presence of nitrilotriacetic acid (an inducer of Type III protein secretion in P. aeruginosa) and either in the presence or absence of putative inhibitors. After a prolonged growth period, the cells are sedimented and the supernatants concentrated by ammonium sulfate precipitation. The proteins in the resuspended pellets are separated by electrophoresis on SDS-polyacrylamide gels. After staining gels with Colloidal Blue™, the 73.9 kDa ExoU band is quantitated by scanning through an imager. The effects of inhibitors on the intensity of the ExoU band may be measured relative to that of untreated controls.", "units": {"inhibition at 100 µM": "%"}, "values": [{"smiles": "O=C(NC(Cc1ccc(Cl)cc1)C(=O)O)c1nc(-c2ccc(C(F)(F)F)cc2)oc1-c1ccc(-c2ccccc2)cc1", "note": "(stereo not shown) [Compound 59, 2-{[5-Biphenyl-4-yl-2-(4-trifluoromethylphenyl)oxazole-4-carbonyl]amino}-3-(4-chlorophenyl)propionic acid]", "inhibition at 100 µM": 84.1}, {"smiles": "O=C(NC(Cc1ccc(Cl)cc1)C(=O)O)c1nc(-c2ccc(-c3ccccc3)cc2)oc1-c1cccc(C(F)(F)F)c1", "note": "(stereo not shown) [Compound 60, 2-{[2-Biphenyl-4-yl-5-(3-trifluoromethylphenyl)oxazole-4-carbonyl]amino}-3-(4-chlorophenyl)propionic acid]", "inhibition at 100 µM": 90.2}]}, {"test_system": "type III protein secretion system of P. aeruginosa PA103 (ExoU secretion)", "assay": "Tertiary assay: Type III-dependent secretion of ExoU by P. aeruginosa PA103", "type": "cell-based", "conditions": "Pseudomonas aeruginosa, ExoU secreted into extracellular medium", "text": "as §1, §2", "values": [{"smiles": "O=C(N[C@@H](CSCc1ccccc1)C(=O)O)c1nc(-c2ccc(C(F)(F)F)cc2)oc1-c1ccc(-c2ccccc2)nc1", "note": "[Compound 33, (R)-3-Benzylsulfanyl-2-{[5-(6-phenylpyridin-3-yl)-2-(4-trifluoromethylphenyl)oxazole-4-carbonyl]amino}propionic acid]", "pIC50": 4.31}, {"smiles": "O=C(NC(Cc1ccc(Cl)cc1)C(=O)O)c1nc(-c2ccc(-c3ccccc3)cc2)oc1-c1cccc(C(F)(F)F)c1", "note": "(stereo not shown) [Compound 15, 2-{[2-Biphenyl-4-yl-5-(3-trifluoromethylphenyl)oxazole-4-carbonyl]amino}-3-(4-chlorophenyl)propionic acid]", "pIC50": 4.10}, {"smiles": "O=C(NC(Cc1ccc(Cl)cc1)C(=O)O)c1nc(-c2ccc(C(F)(F)F)cc2)oc1-c1cc2ccccc2o1", "note": "(stereo not shown) [Compound 42, 2-{[5-Benzofuran-2-yl-2-(4-trifluoromethylphenyl)oxazole-4-carbonyl]amino}-3-(4-chlorophenyl)propionic acid]", "pIC50": 4.57}, {"smiles": "Cc1nc(-c2ccc(-c3oc(-c4ccc(C(F)(F)F)cc4)nc3C(=O)N[C@H](Cc3ccc(Cl)cc3)C(=O)O)cc2)no1", "note": "[Compound 67, 3-(4-Chlorophenyl)-2-{[5-[4-(5-methyl[1,2,4]oxadiazol-3-yl)phenyl]-2-(4-trifluoromethylphenyl)oxazole-4-carbonyl]amino}propionic acid]", "pIC50": 4.90}, {"smiles": "O=C(N[C@@H](COCc1ccccc1)C(=O)O)c1nc(-c2ccc(C(F)(F)F)cc2)oc1-c1ccc(Cl)nc1", "note": "[Compound 29, (S)-3-Benzyloxy-2-{[5-(6-chloropyridin-3-yl)-2-(4-trifluoromethylphenyl)oxazole-4-carbonyl]amino}propionic acid]", "pIC50": 4.13}, {"smiles": "O=C(N[C@H](COCc1ccccc1)C(=O)O)c1nc(-c2ccc(-c3ccccc3)cc2)oc1-c1cccc(C(F)(F)F)c1", "note": "[Compound 71, (R)-3-Benzyloxy-2-{[2-biphenyl-4-yl-5-(3-trifluoromethylphenyl)oxazole-4-carbonyl]amino}propionic acid]", "pIC50": 4.34}, {"smiles": "O=C(N[C@@H](COCc1ccccc1)C(=O)O)c1nc(-c2ccc(C(F)(F)F)cc2)oc1-c1cc2ccccc2s1", "note": "[Compound 22, (S)-2-{[5-Benzo[b]thien-2-yl-2-(4-trifluoromethylphenyl)oxazole-4-carbonyl]amino}-3-benzyloxypropionic acid]", "pIC50": 4.08}, {"smiles": "O=C(N[C@@H](CSCc1ccccc1)C(=O)O)c1nc(-c2cccc3ccccc23)oc1-c1ccc(C(F)(F)F)nc1", "note": "[Compound 65, (R)-3-Benzylsulfanyl-2-{[2-naphthalen-1-yl-5-(6-trifluoromethylpyridin-3-yl)oxazole-4-carbonyl]amino}propionic acid]", "pIC50": 4.27}, {"smiles": "O=C(N[C@@H](COCc1ccccc1)C(=O)O)c1nc(-c2ccc(C(F)(F)F)cc2)oc1C#Cc1ccccc1", "note": "[Compound 10, (S)-3-Benzyloxy-2-{[5-phenylethynyl-2-(4-trifluoromethylphenyl)oxazole-4-carbonyl]amino}propionic acid]", "pIC50": 4.37}, {"smiles": "O=C(N[C@@H](CSCc1ccccc1)C(=O)O)c1nc(-c2ccc(C(F)(F)F)cc2)oc1-c1ccc(N2CCCCC2)nc1", "note": "[Compound 14, (R)-3-Benzylsulfanyl-2-{[5-(3,4,5,6-tetrahydro-2H-[1,2′]bipyridin-5′-yl)-2-(4-trifluoromethylphenyl)oxazole-4-carbonyl]amino}propionic acid]", "pIC50": 4.20}, {"smiles": "O=C(NC(Cc1ccc(Cl)cc1)C(=O)O)c1nc(-c2ccc(Oc3ccccc3)cc2)oc1-c1cnc(Cl)c(Cl)c1", "note": "(stereo not shown) [Compound 41, 3-(4-Chlorophenyl)-2-{[5-(5,6-dichloropyridin-3-yl)-2-(4-phenoxyphenyl)oxazole-4-carbonyl]amino}propionic acid]", "pIC50": 4.29}, {"smiles": "O=C(N[C@@H](CSCc1ccccc1)C(=O)O)c1nc(-c2ccc(C(F)(F)F)cc2)oc1-c1ccc(-c2ccncc2)cc1", "note": "[Compound 19, (R)-3-Benzylsulfanyl-2-{[5-(4-pyridin-4-yl-phenyl)-2-(4-trifluoromethylphenyl)oxazole-4-carbonyl]amino}propionic acid]", "pIC50": 4.11}, {"smiles": "CN(C(=O)c1nc(-c2ccc(C(F)(F)F)cc2)oc1-c1ccc(-c2ccccc2)cc1)[C@@H](CSCc1ccccc1)C(=O)O", "note": "[Compound 16]", "pIC50": 4.09}, {"smiles": "O=C(N[C@@H](CSCc1ccccc1)C(=O)O)c1nc(-c2ccc(Oc3ccccc3)cc2)oc1-c1ccc(Cl)c(Cl)c1", "note": "[Compound 8, (R)-3-Benzylsulfanyl-2-{[5-(3,4-dichlorophenyl)-2-(4-phenoxyphenyl)oxazole-4-carbonyl]amino}propionic acid]", "pIC50": 4.34}, {"smiles": "O=C(N[C@@H](CSCc1ccccc1)C(=O)O)c1nc(-c2ccc(C(F)(F)F)cc2)oc1-c1ccc(-c2ccccc2)cc1", "note": "[Compound 5, (R)-3-Benzylsulfanyl-2-{[5-biphenyl-4-yl-2-(4-trifluoromethylphenyl)oxazole-4-carbonyl]amino}propionic acid]", "pIC50": 4.90}, {"smiles": "N#Cc1ccc(-c2oc(-c3ccc(C(F)(F)F)cc3)nc2C(=O)NC(CSCc2ccccc2)C(=O)O)cc1", "note": "(stereo in doubt) [Compound 1, (R)-3-Benzylsulfanyl-2-{[5-(4-cyanophenyl)-2-(4-trifluoromethylphenyl)oxazole-4-carbonyl]amino}propionic acid]", "pIC50": 4.15}, {"smiles": "O=C(N[C@@H](CSCc1ccccc1)C(=O)O)c1nc(-c2ccc(C(F)(F)F)cc2)oc1C#Cc1ccccc1", "note": "[Compound 9, (R)-3-Benzylsulfanyl-2-{[5-phenylethynyl-2-(4-trifluoromethylphenyl)oxazole-4-carbonyl]amino}propionic acid]", "pIC50": 4.57}, {"smiles": "O=C(NC(Cc1ccc(Cl)cc1)C(=O)O)c1nc(-c2ccc(C(F)(F)F)cc2)oc1C1CCN(c2nccc(C(F)(F)F)n2)CC1", "note": "(stereo not shown) [Compound 55, 3-(4-Chlorophenyl)-2-({2-(4-trifluoromethylphenyl)-5-[1-(4-trifluoromethylpyrimidin-2-yl)piperidin-4-yl]oxazole-4-carbonyl}amino)propionic acid]", "pIC50": 4.29}, {"smiles": "O=C(N[C@H](Cc1ccc(Cl)cc1)C(=O)O)c1nc(-c2cccc3ccccc23)oc1-c1ccc(C(F)(F)F)nc1", "note": "[Compound 64, (R)-3-(4-Chlorophenyl)-2-{[2-naphthalen-1-yl-5-(6-trifluoromethylpyridin-3-yl)oxazole-4-carbonyl]amino}propionic acid]", "pIC50": 4.29}, {"smiles": "Cn1cc(-c2oc(-c3ccc(C(F)(F)F)cc3)nc2C(=O)NC(Cc2ccc(Cl)cc2)C(=O)O)c2ccccc21", "note": "(stereo not shown) [Compound 48, 3-(4-Chlorophenyl)-2-{[5-(1-methyl-1H-indol-3-yl)-2-(4-trifluoromethylphenyl)oxazole-4-carbonyl]amino}propionic acid]", "pIC50": 4.13}]}]}
